Measured values reported in ChEMBL document CHEMBL1641393, “Triterpenoids and steroids from the fruits of Melia toosendan and their cytotoxic effects on two human cancer cell lines” (J Nat Prod, 2010).
≈ marks a conversion by molar mass, not a printed value. Calls of active or inactive are those of the source. The calls are words filed in the database; no cut-off is given here.

What was measured:
[1] = test system: MCF7; experiment: Cytotoxicity against human MCF7 cells after 36 hrs by MTT assay; type: functional, cell-based; details: MCF7, 36 h
[2] = test system: Lipaphis erysimi; experiment: Insecticidal activity against Lipaphis erysimi Kaltenbach; type: functional
[3] = test system: U2OS; experiment: Cytotoxicity against human U2OS cells after 36 hrs by MTT assay; type: functional, cell-based
[4] = test system: P388; experiment: Cytotoxicity against mouse P388 cells; type: functional; details: read-out: ED50 (the source's name)

Compound | IC50 [1] [µg/mL] | Activity [2] | IC50 [3] [µg/mL] | EC50 [4] [µg/mL]
C=C(C)[C@H](CC[C@H]1C(=O)O[C@H]2C[C@]3(C)C4=CC[C@H]5C(C)(C)C(=O)CC[C@]5(C)[C@H]4CC[C@@]3(C)[C@@H]21)OO [MELIASENIN N] | 3 (≈ 6.19 µM) | inactive | 8.8 (≈ 18.2 µM) | 
COC(=O)[C@H](CCC=C(C)C)[C@@H]1[C@@H](O)C[C@]2(C)C3=CC[C@H]4C(C)(C)C(=O)CC[C@]4(C)[C@H]3CC[C@@]12C [METHYL KULONATE] | 0.41 (≈ 0.846 µM) | inactive | 14.6 (≈ 30.1 µM) | 1.7 (≈ 3.51 µM)
C[C@H](C/C=C/C(C)(C)OO)[C@@H]1[C@@H](O)C[C@]2(C)C3=CC[C@H]4C(C)(C)C(=O)CC[C@]4(C)[C@H]3CC[C@@]12C (relative stereo) [MELIASENIN J] | 1.1 (≈ 2.33 µM) | inactive | 14.3 (≈ 30.3 µM) | 
O=c1[nH]cc(F)c(=O)[nH]1 [FLUOROURACIL] | 34 (≈ 261 µM) |  | 7.2 (≈ 55.4 µM) | 
CC(C)C(C)CC[C@](C)(O)[C@H]1[C@@H](O)C[C@H]2[C@@H]3[C@H](O)C=C4C[C@@H](O)CC[C@]4(C)[C@H]3CC[C@@]21C (single isomer, unassigned) | 47.4 (≈ 106 µM) | inactive | 9.4 (≈ 20.9 µM) | 
C=C(C)C(CC[C@@H](C)[C@@H]1[C@@H](O)C[C@]2(C)C3=CC[C@H]4C(C)(C)CCC[C@]4(C)[C@H]3CC[C@@]12C)OO (mixture of isomers) [MELIASENIN K] | 2.4 | inactive | 7.2 | 
CC(C)(/C=C/C[C@H]1C(=O)O[C@H]2C[C@]3(C)C4=CC[C@H]5C(C)(C)C(=O)CC[C@]5(C)[C@H]4CC[C@@]3(C)[C@@H]21)OO [MELIASENIN M] | 16.4 (≈ 33.8 µM) | inactive | 29.2 (≈ 60.2 µM) | 
C=C(C)C(CC[C@@H](C)[C@@H]1[C@@H](O)C[C@]2(C)C3=CC[C@H]4C(C)(C)C(=O)CC[C@]4(C)[C@H]3CC[C@@]12C)OO (mixture of isomers) [MELIASENIN L] | 9.8 | inactive | 9.5 | 
C=C(C)C(O)CC[C@@H](C)[C@@H]1[C@@H](O)C[C@]2(C)C3=CC[C@H]4C(C)(C)C(=O)CC[C@]4(C)[C@H]3CC[C@@]12C (stereo partly specified) [MELIASTATIN 5] | 16 (≈ 35 µM) | inactive | 9.5 (≈ 20.8 µM) | 1.7 (≈ 3.72 µM)
COC(=O)[C@H](C/C=C/C(C)(C)OO)[C@@H]1[C@@H](O)C[C@]2(C)C3=CC[C@H]4C(C)(C)C(=O)CC[C@]4(C)[C@H]3CC[C@@]12C [MELIASTATIN 3] | 48.6 (≈ 94.1 µM) | inactive | 31.1 (≈ 60.2 µM) | 1.7 (≈ 3.29 µM)
CC[C@H](CC[C@](C)(O)[C@H]1[C@@H](O)C[C@H]2[C@@H]3[C@H](O)C=C4C[C@@H](O)CC[C@]4(C)[C@H]3CC[C@@]21C)C(C)C | > 50 | inactive | 23.2 (≈ 50.1 µM) | 
CO[C@H]1O[C@@H]([C@@H]2OC2(C)C)C[C@H]1[C@@H]1CC[C@]2(C)C3=CC[C@H]4C(C)(C)[C@@H](O)CC[C@]4(C)[C@H]3CC[C@@]12C [MELIASENIN P] | 6.4 (≈ 13.1 µM) | inactive | 48.7 (≈ 100 µM) | 
CC(C)=CCC[C@@H](C)[C@@H]1[C@@H](O)C[C@]2(C)C3=CC[C@H]4C(C)(C)C(=O)CC[C@]4(C)[C@H]3CC[C@@]12C [KULINONE] | 42.5 (≈ 96.4 µM) | inactive | 6.9 (≈ 15.7 µM) | 1.7 (≈ 3.86 µM)
C[C@H](C/C=C/C(C)(C)OO)[C@@H]1[C@@H](O)C[C@]2(C)C3=CC[C@H]4C(C)(C)[C@@H](O)CC[C@]4(C)[C@H]3CC[C@@]12C (relative stereo) [MELIASENIN I] | 11.2 (≈ 23.6 µM) | inactive | 9.5 (≈ 20 µM) | 
C=C(C)[C@@H](CC[C@H]1C(=O)O[C@H]2C[C@]3(C)C4=CC[C@H]5C(C)(C)C(=O)CC[C@]5(C)[C@H]4CC[C@@]3(C)[C@@H]21)OO [MELIASENIN O] | 2.3 (≈ 4.75 µM) | inactive | 23.9 (≈ 49.3 µM) | 
CCCCCCCCCCCCCCCC(=O)O[C@H]1CC[C@]2(C)[C@H]3CC[C@@]4(C)[C@H]([C@@H]5C[C@H]([C@H](O)C(C)(C)O)O[C@@H]5OC)CC[C@]4(C)C3=CC[C@H]2C1(C)C [MELIASENIN Q] | > 50 | inactive | 3.9 (≈ 5.25 µM) | 
